Blank lines part the entries; values can stand above or below the compound they belong to.
System: 624824-186-R-J3-PDC multicell spheroids, viability
Experiment: Anticancer human tumor 624824-186-R-J3-PDC patient-derived colon adenocarcinoma cell line growth inhibition [PI3K]
Details: for IC50: curve of first compound; for viability, T/C: stronger effect = lower value
Summary of the method: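 Agents were dosed from a top concentration near clinical Cmax (otherwise 10 microM) in half-log decrements, alone or combined with PI3K inhibitors. The spheroids contain tumor cells plus endothelial (HUVEC) and MSC stroma; viability is measured.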

[1] = second compound 0.0316 µM, first compound 0.0316 µM
[2] = second compound 0.0316 µM, first compound 0.1 µM
[3] = second compound 0.0316 µM, first compound 0.316 µM
[4] = second compound 0.0316 µM, first compound 1 µM
[5] = second compound 0.0316 µM, first compound 3.16 µM
[6] = second compound 0.0316 µM, first compound 10 µM
[7] = second compound 0.1 µM, first compound 0.0316 µM
[8] = second compound 0.1 µM, first compound 0.1 µM
[9] = second compound 0.1 µM, first compound 0.316 µM
[10] = second compound 0.1 µM, first compound 1 µM
[11] = second compound 0.1 µM, first compound 3.16 µM
[12] = second compound 0.1 µM, first compound 10 µM
[13] = second compound 0.316 µM, first compound 0.0316 µM
[14] = second compound 0.316 µM, first compound 0.1 µM
[15] = second compound 0.316 µM, first compound 0.316 µM
[16] = second compound 0.316 µM, first compound 1 µM
[17] = second compound 0.316 µM, first compound 3.16 µM
[18] = second compound 0.316 µM, first compound 10 µM
[19] = second compound 1 µM, first compound 0.0316 µM
[20] = second compound 1 µM, first compound 0.1 µM
[21] = second compound 1 µM, first compound 0.316 µM
[22] = second compound 1 µM, first compound 1 µM
[23] = second compound 1 µM, first compound 3.16 µM
[24] = second compound 1 µM, first compound 10 µM
[25] = second compound 3.16 µM, first compound 0.0316 µM
[26] = second compound 3.16 µM, first compound 0.1 µM
[27] = second compound 3.16 µM, first compound 0.316 µM
[28] = second compound 3.16 µM, first compound 1 µM
[29] = second compound 3.16 µM, first compound 3.16 µM
[30] = second compound 3.16 µM, first compound 10 µM
[31] = second compound 10 µM, first compound 0.0316 µM
[32] = second compound 10 µM, first compound 0.1 µM
[33] = second compound 10 µM, first compound 0.316 µM
[34] = second compound 10 µM, first compound 1 µM
[35] = second compound 10 µM, first compound 3.16 µM
[36] = second compound 10 µM, first compound 10 µM
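Note: spheroids exposed to agents for seven days before luminescence read.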
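Throughout, for viability, T/C: luminescent signal used as a stand-in for spheroid viability; percent viability relative to DMSO vehicle control wells taken as 100%.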

IC50 (second compound 0.0316 µM): > 10 µM
IC50 (second compound 0.1 µM): > 10 µM
IC50 (second compound 0.316 µM): > 10 µM
IC50 (second compound 1 µM): > 10 µM
IC50 (second compound 3.16 µM): > 10 µM
IC50 (second compound 10 µM): > 10 µM
SMILES: C=CC(=O)N1CCN(c2nc(=O)n(-c3c(C)ccnc3C(C)C)c3nc(-c4c(O)cccc4F)c(F)cc23)C(C)C1 (stereo unspecified) + Cc1nc(NC(=O)N2CCCC2C(N)=O)sc1-c1ccnc(C(C)(C)C(F)(F)F)c1
viability, T/C [1]: 103%
viability, T/C [2]: 108%
viability, T/C [3]: 106%
viability, T/C [4]: 94%
viability, T/C [5]: 107%
viability, T/C [6]: 113%
viability, T/C [7]: 112%
viability, T/C [8]: 101%
viability, T/C [9]: 95.5%
viability, T/C [10]: 110%
viability, T/C [11]: 113%
viability, T/C [12]: 105%
viability, T/C [13]: 109%
viability, T/C [14]: 109%
viability, T/C [15]: 116%
viability, T/C [16]: 106%
viability, T/C [17]: 103%
viability, T/C [18]: 103%
viability, T/C [19]: 103%
viability, T/C [20]: 108%
viability, T/C [21]: 104%
viability, T/C [22]: 116%
viability, T/C [23]: 105%
viability, T/C [24]: 101%
viability, T/C [25]: 83.6%
viability, T/C [26]: 92.8%
viability, T/C [27]: 90.9%
viability, T/C [28]: 78.7%
viability, T/C [29]: 95.6%
viability, T/C [30]: 78.5%
viability, T/C [31]: 68.4%
viability, T/C [32]: 69%
viability, T/C [33]: 71.2%
viability, T/C [34]: 76.1%
viability, T/C [35]: 69.8%
viability, T/C [36]: 65.3%

IC50 (second compound 0.0316 µM): 4.91 µM
IC50 (second compound 0.1 µM): 4.92 µM
IC50 (second compound 0.316 µM): 5.07 µM
IC50 (second compound 1 µM): 4.8 µM
IC50 (second compound 3.16 µM): 4.68 µM
IC50 (second compound 10 µM): 2.45 µM
SMILES: CCCS(=O)(=O)Nc1ccc(F)c(C(=O)c2c[nH]c3ncc(-c4ccc(Cl)cc4)cc23)c1F + CC(Nc1ncnc2nc[nH]c12)c1cc2cccc(Cl)c2c(=O)n1-c1ccccc1
viability, T/C [1]: 102%
viability, T/C [2]: 101%
viability, T/C [3]: 89.4%
viability, T/C [4]: 98%
viability, T/C [5]: 76%
viability, T/C [6]: 7.94%
viability, T/C [7]: 102%
viability, T/C [8]: 104%
viability, T/C [9]: 94.1%
viability, T/C [10]: 90.5%
viability, T/C [11]: 78.9%
viability, T/C [12]: 6.92%
viability, T/C [13]: 102%
viability, T/C [14]: 95.2%
viability, T/C [15]: 108%
viability, T/C [16]: 91.7%
viability, T/C [17]: 80.4%
viability, T/C [18]: 7.81%
viability, T/C [19]: 99.9%
viability, T/C [20]: 103%
viability, T/C [21]: 91.5%
viability, T/C [22]: 84%
viability, T/C [23]: 78.2%
viability, T/C [24]: 7.61%
viability, T/C [25]: 100%
viability, T/C [26]: 90.5%
viability, T/C [27]: 97.1%
viability, T/C [28]: 81%
viability, T/C [29]: 74.2%
viability, T/C [30]: 9.32%
viability, T/C [31]: 97.4%
viability, T/C [32]: 74.6%
viability, T/C [33]: 73.7%
viability, T/C [34]: 60.5%
viability, T/C [35]: 56%
viability, T/C [36]: 11.7%

IC50 (second compound 0.00316 µM): > 10 µM
IC50 (second compound 0.01 µM): > 10 µM
IC50 (second compound 0.0316 µM): > 10 µM
IC50 (second compound 0.1 µM): > 10 µM
IC50 (second compound 0.316 µM): 0.239 µM
IC50 (second compound 1 µM): < 0.0316 µM
SMILES: CC(Cn1ccc(-c2ccc(C#N)c(Cl)c2)n1)NC(=O)c1cc(C(C)O)[nH]n1 (stereo unspecified) + COc1c(OCCCN2CCOCC2)ccc2c3n(c(=NC(=O)c4cnc(N)nc4)nc12)CCN3
viability, T/C (second compound 0.00316 µM, first compound 0.0316 µM): 106%
viability, T/C (second compound 0.00316 µM, first compound 0.1 µM): 98.6%
viability, T/C (second compound 0.00316 µM, first compound 0.316 µM): 101%
viability, T/C (second compound 0.00316 µM, first compound 1 µM): 96.3%
viability, T/C (second compound 0.00316 µM, first compound 3.16 µM): 103%
viability, T/C (second compound 0.00316 µM, first compound 10 µM): 98.2%
viability, T/C (second compound 0.01 µM, first compound 0.0316 µM): 101%
viability, T/C (second compound 0.01 µM, first compound 0.1 µM): 93.2%
viability, T/C (second compound 0.01 µM, first compound 0.316 µM): 98.2%
viability, T/C (second compound 0.01 µM, first compound 1 µM): 103%
viability, T/C (second compound 0.01 µM, first compound 3.16 µM): 108%
viability, T/C (second compound 0.01 µM, first compound 10 µM): 105%
viability, T/C [1]: 96.6%
viability, T/C [2]: 97.4%
viability, T/C [3]: 87.3%
viability, T/C [4]: 95.6%
viability, T/C [5]: 91.9%
viability, T/C [6]: 84.5%
viability, T/C [7]: 74.5%
viability, T/C [8]: 79.9%
viability, T/C [9]: 78%
viability, T/C [10]: 76.6%
viability, T/C [11]: 77%
viability, T/C [12]: 68.7%
viability, T/C [13]: 54.6%
viability, T/C [14]: 50.1%
viability, T/C [15]: 49.8%
viability, T/C [16]: 48.2%
viability, T/C [17]: 40.9%
viability, T/C [18]: 38.8%
viability, T/C [19]: 26.9%
viability, T/C [20]: 28.1%
viability, T/C [21]: 28.3%
viability, T/C [22]: 28.2%
viability, T/C [23]: 24.9%
viability, T/C [24]: 23.6%
